Laboratory results from patent US11518785B2, “Peptide showing melanogenesis promoting activity and use thereof” (CAREGEN CO., LTD., priority 2017, dated 2022).
Several values for one entry are separate records, joined by “and”; a condition that tells them apart may be missing. Identical values can stand only once.

How the values were obtained:
Format in all cases: cell-based, mouse
[1] = test system: melanocytes (B16F10 cell line); assay: Melanogenesis assay (melanin content); conditions: for Melanin content (%): B16F10, 72 hours, control group = 100; for melanogenesis: mouse melanin cell line B16F10 treated with the peptide, result in words
Method: After seeding melanocytes (B16F10 cell line) in 6-well plates at the density of 5×10^4 cells/well, the melanocytes were cultured in an incubator at a temperature of 37° C. for 24 hours, and the medium of each plate was removed and replaced with 2% serum-containing media, followed by treatment with the present peptide at different concentrations and then incubation of 72 hours.
Then, the culture medium was removed, and the cells were taken off and then transferred into 1.5-ml tubes, followed by centrifugation at 13,000 rpm for 3 minutes to remove the supernatant. Next, cell pellets were collected to observe melanin. 150 μl of 1 N NaOH was added to the cell pellets to lyse intracellular melanin at a temperature of 60° C. for 30 minutes.

[2] = test system: MITF and tyrosinase protein in B16F10 cell line; assay: Western blotting of melanogenesis-related proteins; conditions: B16F10 treated with the peptide, 72-hour incubation, result in words
Method: (§1) Melanocytes (B16F10 cell line) were seeded on 6-well culture plates at the density of 5×10^4 cells/well and incubated in an incubator for 24 hours, and the cells were treated with the peptides of the present invention with different concentrations. After 72-hour incubation, the cells were lysed, and the cells were subjected to western blotting using antibodies (antacruz biotechnology, USA) each specific to MITF and tyrosinase, which are the factors involved in melanogenesis.

[3] = test system: tyrosinase in melanoma cell line (B16F10) cells; assay: Tyrosinase activity assay in lysates of treated cells (L-DOPA); conditions: for Tyrosinase activity (%): B16F10, 72 hours, control group = 100; for tyrosinase activity: mouse melanin cell line B16F10 treated with the peptide, result in words
Method: Melanoma cell line (B16F10) cells were cultured in 6-well culture plates for 24 hours, and treated with the peptide with different concentrations, followed by culture for 72 hours. The 6-well culture plates were loaded on ice and washed with cool PBS, and then 300 μl of 0.1 M sodium phosphate buffer (pH 6.8, lysis buffer) containing 1% Triton X-100 was added. The cells were collected in 1.5-ml tubes, and then cell membranes were disrupted by repeating five times rapid-freezing at […] and thawing. After centrifugation at 15,000 rpm for 10 minutes, the supernatant was collected in other 1.5-mL tubes, and the protein of the samples was quantified. The samples were diluted to have the same protein concentration and then dispensed in every three wells in 96-well culture plates, and then 20 μl of 10 mM L-DOPA was added, followed by incubation at 37° C. for 1 hour The blank and positive control were as shown in Table 5.
Then, the absorbance was measured at 475 nm, and the results are shown in FIGS. 2, 7, and 12, and Tables 6 to 8.

[4] = test system: TRP1 mRNA in B16F10 cell line; assay: RT-PCR of melanogenesis-related genes: TRP1; conditions: B16F10 treated with the peptide, 72 hours, result in words
Method: (§2) Melanocytes (B16F10 cell line) were seeded on 6-well culture plates at the density of 5×10^4 cells/well and incubated in an incubator for 24 hours. Then, the medium was replaced with […], and the cells were treated with the peptides of the present invention with different concentrations and cultured for 72 hours. Next, after RNA extraction of cells and quantification, cDNA was synthesized by using the cDNA synthesis kit (Intron, Korea). […] Then, degrees of mRNA expression of the growth factors under each sample treatment conditions were compared by running the resultants on a 5% agarose gel, and the results are shown in FIGS. 3, 8, and 13.

[5] = test system: MITF mRNA in B16F10 cell line; assay: RT-PCR of melanogenesis-related genes: MITF; conditions: B16F10 treated with the peptide, 72 hours, result in words
Method: as §2

[6] = test system: tyrosinase mRNA in B16F10 cell line; assay: RT-PCR of melanogenesis-related genes: tyrosinase; conditions: B16F10 treated with the peptide, 72 hours, result in words
Method: as §2

[7] = test system: CREB phosphorylation in B16F10 cell line; assay: Melanogenesis-related protein activity assay (CREB phosphorylation, western blotting); conditions: B16F10 treated with the peptide, 48-hour incubation, result in words
Method: as §1, with “48-hour” for “72-hour”, “using specific” for “using”, “(Cell Signaling Technology,” for “(antacruz biotechnology,”, “USA)” for “USA) each specific”, “investigate the phosphorylation level of CREB,” for “MITF and tyrosinase,”, “is a signaling substance” for “are the factors”

| Substance | Melanin content (%) ([1]; 10 μM peptide) | Melanin content (%) ([1]; 50 μM peptide) | melanogenesis [1] | protein expression involved in the process of melanogenesis (MITF, tyrosinase) [2] | Tyrosinase activity (%) ([3]; 10 μM peptide) | Tyrosinase activity (%) ([3]; 50 μM peptide) | tyrosinase activity [3] | mRNA expression of TRP1 [4] | mRNA expression of MITF [5] | mRNA expression of tyrosinase [6] | phosphorylation level of CREB [7] | Tyrosinase activity (%) ([3]; 200 nM a-MSH) |
| --- | --- | --- | --- | --- | --- | --- | --- | --- | --- | --- | --- | --- |
| FCLGPCPYIWSL [SEQ ID NO: 1] | 125% | 264% | increased | increased | 157% | 201% | increased | increased | increased | increased | increased |  |
| KVTAMRCFLL [SEQ ID NO: 2] | 109% | 155% | increased | increased | 144% | 189% | increased | increased | increased | increased | increased |  |
| RVTAMRCFLL [SEQ ID NO: 3] | 106% | 164% | increased | increased | 114% | 173% | increased | increased | increased | increased | increased |  |
| α-melanocyte stimulating hormone [a-MSH, reference compound] |  |  |  |  |  |  |  |  |  |  |  | 467% and 484% |
